{
  "source": "patent US20260174769A1",
  "about": "“MACROCYCLIC COMPOUNDS AND METHODS OF USE” (AMGEN INC., priority 2022, published 2026)",
  "data": [
    {"target": "His-tagged KRAS G12D protein (Homo sapiens, UniProt P01116, G12D)", "sequence (P01116 1-188 isoform P01116-2 G12D)": "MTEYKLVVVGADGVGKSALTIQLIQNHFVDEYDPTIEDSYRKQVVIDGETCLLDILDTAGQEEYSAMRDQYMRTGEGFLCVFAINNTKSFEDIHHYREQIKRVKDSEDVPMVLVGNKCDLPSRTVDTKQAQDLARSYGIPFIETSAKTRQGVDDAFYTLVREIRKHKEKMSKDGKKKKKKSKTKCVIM", "assay": "KRAS G12D TR-FRET Assay", "assay_type": "binding", "settings": "TR-FRET binding", "procedure": "(§1) The His-tagged KRAS G12D protein (Amgen) was diluted to 20 nM in Assay Buffer (20 mM HEPES, pH 7.4, 10 mM MgCl2, 50 mM NaCl, 0.1% BSA, 0.01% Tween-20, 10 μM GDP) and 2 μL was added to the appropriate wells of the 384-well plate. The plate was incubated for 30 minutes at room temperature. Biotinylated KRPep-2d substrate (Amgen) was diluted to 20 nM in Assay Buffer and 2 μL was added to all wells and incubated for 1 hour at room temperature. Detection Reagent (0.4 nM LANCE Eu-W1024 Anti-6×His (Perkin Elmer AD0401), 5 nM streptavidin-d2 (Cisbio 610SADLA)) was prepared in Assay Buffer, then 4 μL was added to the plate and incubated for 1 hour at room temperature.", "units": {"IC50": "nM"}, "values": [
      {"smiles": "O=C1CCCc2c(F)ccc3cccc(c23)-c2ncc3c(nc(OC[C@@]45CCCN4C[C@H](F)C5)nc3c2F)N2CC[C@H]3CCN1[C@H]3C2", "note": "(single isomer, unassigned) [Example 72]", "IC50": 3},
      {"smiles": "Cc1cc2[nH]ncc2c2c1CCCC(F)C(=O)N[C@@H]1CCCCN(C1)c1nc(OC[C@@]34CCCN3C[C@H](F)C4)nc3c(F)c-2ncc13", "note": "(single isomer, unassigned) [Example 159]", "IC50": 6},
      {"smiles": "CN1CCC[C@H]1COc1nc2c3cnc(c(F)c3n1)-c1c(c(Cl)cc3[nH]ncc13)CCCOC(=O)O[C@@]1(CF)COCCN2C1", "note": "(single isomer, unassigned) [Example 337]", "IC50": 2440},
      {"smiles": "C[C@@]12COCCN(C1)c1nc(OC[C@H]3CC[C@@H]4COCCN43)nc3c(F)c(ncc13)-c1c(c(Cl)cc3[nH]ncc13)CCCOC(=O)O2", "note": "(single isomer, unassigned) [Example 308]", "IC50": 6},
      {"smiles": "[2H]C([2H])([2H])[C@]12COCCN(C1)c1nc(OC[C@@]34CCCN3C[C@H](F)C4)nc3c(F)c(ncc13)-c1c(c(C)cc3[nH]ncc13)CCCOC(=O)O2", "note": "(single isomer, unassigned) [Example 351]", "IC50": 464},
      {"smiles": "O=C1CCCCc2c(Cl)cccc2-c2ncc3c(nc(OC[C@@]45CCCN4C[C@H](F)C5)nc3c2F)N2CC[C@@H]3CCN1[C@@H]3C2", "note": "(single isomer, unassigned) [Example 163]", "IC50": 2840},
      {"smiles": "Cc1cc2[nH]ncc2c2c1CCC[C@@H](F)C(=O)N(C)[C@@H]1CCCN(C1)c1nc(OC[C@@]34CCCN3C[C@H](F)C4)nc3c(F)c-2ncc13", "note": "(single isomer, unassigned) [Example 52]", "IC50": 19},
      {"smiles": "Fc1cc2[nH]ncc2c2c1CCCCOC[C@H]1CCCCN(C1)c1nc(OC[C@@]34CCCN3C[C@H](F)C4)nc3c(F)c-2ncc13", "note": "(single isomer, unassigned) [Example 240]", "IC50": 3},
      {"smiles": "C[C@@H]1CCOC[C@H]2CN(CCO2)c2nc(OC[C@@]34CCCN3C[C@H](F)C4)nc3c(F)c(ncc23)-c2c(c(Cl)cc3[nH]ncc23)C1", "note": "(single isomer, unassigned) [Example 253]", "IC50": 9},
      {"smiles": "Cc1cc2[nH]ncc2c2c1C[C@H](C)COC(=O)O[C@@H]1CCCN(C1)c1nc(OC[C@@]34CCCN3C[C@H](F)C4)nc3c(F)c-2ncc13", "note": "(single isomer, unassigned) [Example 215]", "IC50": 15},
      {"smiles": "Fc1c2ncc3c(nc(OC[C@@]45CCCN4C[C@H](F)C5)nc13)N1CCOC[C@H](C1)c1cnn(n1)CCCc1c(Cl)cc3[nH]ncc3c1-2", "note": "(single isomer, unassigned) [Example 298]", "IC50": 7},
      {"smiles": "Fc1c2ncc3c(nc(OC[C@@]45CCCN4C[C@H](F)C5)nc13)N1CCO[C@]3(C1)C[C@@H](C3)OCCCCc1c(Cl)cc3[nH]ncc3c1-2", "note": "(single isomer, unassigned) [Example 261]", "IC50": 6},
      {"smiles": "Cc1cc2[nH]ncc2c2c1CCCOC(=O)N[C@]1(C)CCCCN(C1)c1nc(OC[C@@]34CCCN3C[C@H](F)C4)nc3c(F)c-2ncc13", "note": "(single isomer, unassigned) [Example 292]", "IC50": 4},
      {"smiles": "CN1CCC[C@H]1COc1nc2c3cnc(c(F)c3n1)-c1c(c(Cl)cc3[nH]ncc13)CCCOC(=O)O[C@@]1(C)COCCN2C1", "note": "(single isomer, unassigned) [Example 180]", "IC50": 1510},
      {"smiles": "Cc1cc2[nH]ncc2c2c1CCOC(=O)O[C@H]1C[C@@]3(CCCN(C3)c3nc(OC[C@@H]4CCCN4C)nc4c(F)c-2ncc34)C1", "note": "(single isomer, unassigned) [Example 325]", "IC50": 99}
    ]},
    {"target": "His-tagged KRAS G12D protein (Homo sapiens, UniProt P01116, G12D)", "assay": "KRAS G12D TR-FRET Assay", "assay_type": "binding", "settings": "TR-FRET; read-out: KRAS G12D Binding IC50", "procedure": "as §1", "units": {"IC50": "nM"}, "values": [
      {"smiles": "Fc1c2ncc3c(nc(OC[C@@]45CCCN4C[C@H](F)C5)nc13)N1CCCC[C@](F)(COCCCCc3c(Cl)cc4[nH]ncc4c3-2)C1", "note": "(single isomer, unassigned) [Example 398]", "IC50": 4},
      {"smiles": "Fc1c2ncc3c(nc(OC[C@@]45CCCN4C[C@H](F)C5)nc13)N1CCO[C@@H](COCC[C@@H]3C[C@@H]3c3c(Cl)cc4[nH]ncc4c3-2)C1", "note": "(single isomer, unassigned) [Example 392]", "IC50": 6},
      {"smiles": "Fc1c2ncc3c(nc(OC[C@@]45CCCN4C[C@H](F)C5)nc13)N1CCC[C@@H](C1)c1cnc(o1)CCCc1c(Cl)cc3[nH]ncc3c1-2", "note": "(single isomer, unassigned) [Example 386]", "IC50": 3730}
    ]}
  ]
}
